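A five-concentration, 48-hour dose response in 96-well plates underlies each endpoint, interpolated linearly between surrounding concentrations. Here, GI50 denotes the concentration required for 50% inhibition of growth. TGI: total growth inhibition.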
Key:
Assay in all cases: NCI anticancer screen, dose series, 48 h
RXF-631 renal = tested on: RXF-631 renal
SK-MEL-5 melanoma = tested on: SK-MEL-5 melanoma
HOP-92 NSCLC = tested on: HOP-92 NSCLC
HCT-116 colon = tested on: HCT-116 colon
UO-31 renal = tested on: UO-31 renal
CCRF-CEM leukemia = tested on: CCRF-CEM leukemia
SK-MEL-28 melanoma = tested on: SK-MEL-28 melanoma
NCI-H460 lung = tested on: NCI-H460 lung
HCC-2998 colon = tested on: HCC-2998 colon
OVCAR-8 ovarian = tested on: OVCAR-8 ovarian
SW-620 colon = tested on: SW-620 colon
SR leukemia = tested on: SR leukemia
KM20L2 colon = tested on: KM20L2 colon
U251 CNS = tested on: U251 CNS
SF-295 CNS = tested on: SF-295 CNS
IGROV1 ovarian = tested on: IGROV1 ovarian
K-562 leukemia = tested on: K-562 leukemia
DMS 114 small cell lung = tested on: DMS 114 small cell lung
M14 melanoma = tested on: M14 melanoma
SNB-75 CNS = tested on: SNB-75 CNS
ACHN renal = tested on: ACHN renal
UACC-62 melanoma = tested on: UACC-62 melanoma
HOP-18 NSCLC = tested on: HOP-18 NSCLC
DLD-1 colon = tested on: DLD-1 colon
RXF 393 renal = tested on: RXF 393 renal
KM12 colon = tested on: KM12 colon
NCI-H23 lung = tested on: NCI-H23 lung
MALME-3M melanoma = tested on: MALME-3M melanoma
DMS 273 small cell lung = tested on: DMS 273 small cell lung
NCI-H226 lung = tested on: NCI-H226 lung
RPMI-8226 leukemia = tested on: RPMI-8226 leukemia
SK-OV-3 ovarian = tested on: SK-OV-3 ovarian
A549 NSCLC = tested on: A549 NSCLC
HCT-15 colon = tested on: HCT-15 colon
SF-268 CNS = tested on: SF-268 CNS
M19-MEL melanoma = tested on: M19-MEL melanoma
OVCAR-4 ovarian = tested on: OVCAR-4 ovarian
SNB-19 CNS = tested on: SNB-19 CNS
786-0 renal = tested on: 786-0 renal
SNB-78 CNS = tested on: SNB-78 CNS
TK-10 renal = tested on: TK-10 renal
SN12C renal = tested on: SN12C renal
HT29 colon = tested on: HT29 colon
LXFL 529 NSCLC = tested on: LXFL 529 NSCLC
SK-MEL-2 melanoma = tested on: SK-MEL-2 melanoma
CAKI-1 renal = tested on: CAKI-1 renal
EKVX NSCLC = tested on: EKVX NSCLC
NCI-H522 lung = tested on: NCI-H522 lung
MOLT-4 leukemia = tested on: MOLT-4 leukemia
SF-539 CNS = tested on: SF-539 CNS
HOP-62 NSCLC = tested on: HOP-62 NSCLC
XF 498 CNS = tested on: XF 498 CNS
OVCAR-3 ovarian = tested on: OVCAR-3 ovarian
OVCAR-5 ovarian = tested on: OVCAR-5 ovarian
UACC-257 melanoma = tested on: UACC-257 melanoma

With COc1c(NC(=O)CC(C)=O)[c]([Hg][O]C(C)=O)c(OC)c(Cl)[c]1[Hg][O]C(C)=O as the molecule, how does the GI50 (RXF-631 renal) read?
Its GI50 is 3.02 µM.

And the TGI (RXF-631 renal)?
The TGI was 13.7 µM.

What about the GI50 (SK-MEL-5 melanoma) of the same molecule?
Its GI50 is 12.5 µM.

And the TGI (SK-MEL-5 melanoma)?
Its TGI is 25 µM.

What about the GI50 (HOP-92 NSCLC) of the same molecule?
The GI50 was 4.13 µM.

What about the TGI (HOP-92 NSCLC) of the same molecule?
The TGI was 11.6 µM.

What about the GI50 (HCT-116 colon) of the same molecule?
The GI50 was 15.2 µM.

And the TGI (HCT-116 colon)?
Its TGI is 31.8 µM.

And the GI50 (UO-31 renal)?
The GI50 was 16.2 µM.

And the TGI (UO-31 renal)?
Its TGI is 29.7 µM.

What about the GI50 (CCRF-CEM leukemia) of the same molecule?
The GI50 was 4.8 µM.

What about the TGI (CCRF-CEM leukemia) of the same molecule?
The TGI was 28.5 µM.

What about the GI50 (SK-MEL-28 melanoma) of the same molecule?
The GI50 was 11.3 µM.

And the TGI (SK-MEL-28 melanoma)?
The TGI was 23.9 µM.

What about the GI50 (NCI-H460 lung) of the same molecule?
Its GI50 is 21.3 µM.

And the TGI (NCI-H460 lung)?
The TGI was 49.9 µM.

And the GI50 (HCC-2998 colon)?
The GI50 was 18.8 µM.

What about the TGI (HCC-2998 colon) of the same molecule?
Its TGI is 34.3 µM.

And the GI50 (OVCAR-8 ovarian)?
The GI50 was 17.8 µM.

What about the TGI (OVCAR-8 ovarian) of the same molecule?
Its TGI is 36.3 µM.

What about the GI50 (SW-620 colon) of the same molecule?
The GI50 was 7.62 µM.

And the TGI (SW-620 colon)?
The TGI was 20.8 µM.

And the GI50 (SR leukemia)?
The GI50 was 3.67 µM.

And the TGI (SR leukemia)?
The TGI was 82.1 µM.

And the GI50 (KM20L2 colon)?
The GI50 was 14.6 µM.

What about the TGI (KM20L2 colon) of the same molecule?
Its TGI is 28.5 µM.

And the GI50 (U251 CNS)?
Its GI50 is 10.1 µM.

And the TGI (U251 CNS)?
Its TGI is 23.2 µM.

What about the GI50 (SF-295 CNS) of the same molecule?
The GI50 was 17 µM.

And the TGI (SF-295 CNS)?
The TGI was 31.8 µM.

And the GI50 (IGROV1 ovarian)?
The GI50 was 11.7 µM.

And the TGI (IGROV1 ovarian)?
The TGI was 28.3 µM.

And the GI50 (K-562 leukemia)?
The GI50 was 8.46 µM.

And the TGI (K-562 leukemia)?
Its TGI is 41.1 µM.

What about the GI50 (DMS 114 small cell lung) of the same molecule?
Its GI50 is 1.61 µM.

What about the TGI (DMS 114 small cell lung) of the same molecule?
The TGI was 13.5 µM.

What about the GI50 (M14 melanoma) of the same molecule?
The GI50 was 13 µM.

What about the TGI (M14 melanoma) of the same molecule?
The TGI was 25.7 µM.

What about the GI50 (SNB-75 CNS) of the same molecule?
Its GI50 is 9.69 µM.

What about the TGI (SNB-75 CNS) of the same molecule?
Its TGI is 29.5 µM.

What about the GI50 (ACHN renal) of the same molecule?
The GI50 was 13 µM.

What about the TGI (ACHN renal) of the same molecule?
Its TGI is 25.6 µM.

And the GI50 (UACC-62 melanoma)?
The GI50 was 11 µM.

What about the TGI (UACC-62 melanoma) of the same molecule?
The TGI was 22.9 µM.

What about the GI50 (HOP-18 NSCLC) of the same molecule?
Its GI50 is 13.6 µM.

What about the TGI (HOP-18 NSCLC) of the same molecule?
Its TGI is 26.5 µM.

What about the GI50 (DLD-1 colon) of the same molecule?
The GI50 was 14.2 µM.

What about the TGI (DLD-1 colon) of the same molecule?
The TGI was 32.6 µM.

And the GI50 (RXF 393 renal)?
Its GI50 is 9.7 µM.

What about the TGI (RXF 393 renal) of the same molecule?
Its TGI is 24.7 µM.

What about the GI50 (KM12 colon) of the same molecule?
Its GI50 is 13.8 µM.

What about the TGI (KM12 colon) of the same molecule?
The TGI was 26.7 µM.

And the GI50 (NCI-H23 lung)?
Its GI50 is 11.8 µM.

What about the TGI (NCI-H23 lung) of the same molecule?
Its TGI is 27.6 µM.

And the GI50 (MALME-3M melanoma)?
The GI50 was 5.17 µM.

And the TGI (MALME-3M melanoma)?
The TGI was 16.8 µM.

And the GI50 (DMS 273 small cell lung)?
The GI50 was 16.4 µM.

And the TGI (DMS 273 small cell lung)?
The TGI was 31.9 µM.

What about the GI50 (NCI-H226 lung) of the same molecule?
The GI50 was 17.7 µM.

And the TGI (NCI-H226 lung)?
The TGI was 33.9 µM.

What about the GI50 (RPMI-8226 leukemia) of the same molecule?
The GI50 was 17.5 µM.

What about the TGI (RPMI-8226 leukemia) of the same molecule?
Its TGI is 63.5 µM.

And the GI50 (SK-OV-3 ovarian)?
Its GI50 is 17.2 µM.

What about the TGI (SK-OV-3 ovarian) of the same molecule?
Its TGI is 31.1 µM.

And the GI50 (A549 NSCLC)?
Its GI50 is 21.9 µM.

And the TGI (A549 NSCLC)?
The TGI was 47 µM.

What about the GI50 (HCT-15 colon) of the same molecule?
The GI50 was 14 µM.

And the TGI (HCT-15 colon)?
Its TGI is 28.8 µM.

What about the GI50 (SF-268 CNS) of the same molecule?
The GI50 was 12.8 µM.

And the TGI (SF-268 CNS)?
The TGI was 28.5 µM.

And the GI50 (M19-MEL melanoma)?
The GI50 was 12.6 µM.

And the TGI (M19-MEL melanoma)?
Its TGI is 25.1 µM.

What about the GI50 (OVCAR-4 ovarian) of the same molecule?
The GI50 was 14.5 µM.

And the TGI (OVCAR-4 ovarian)?
Its TGI is 35.7 µM.

What about the GI50 (SNB-19 CNS) of the same molecule?
Its GI50 is 18 µM.

What about the TGI (SNB-19 CNS) of the same molecule?
The TGI was 32.3 µM.

What about the GI50 (786-0 renal) of the same molecule?
Its GI50 is 6.47 µM.

And the TGI (786-0 renal)?
The TGI was 18.8 µM.

And the GI50 (SNB-78 CNS)?
Its GI50 is 15.5 µM.

What about the TGI (SNB-78 CNS) of the same molecule?
The TGI was 34.2 µM.

What about the GI50 (TK-10 renal) of the same molecule?
Its GI50 is 12.8 µM.

What about the TGI (TK-10 renal) of the same molecule?
The TGI was 25.3 µM.

What about the GI50 (SN12C renal) of the same molecule?
The GI50 was 15.4 µM.

What about the TGI (SN12C renal) of the same molecule?
The TGI was 29.8 µM.

What about the GI50 (HT29 colon) of the same molecule?
Its GI50 is 11.3 µM.

And the TGI (HT29 colon)?
Its TGI is 32.6 µM.

And the GI50 (LXFL 529 NSCLC)?
Its GI50 is 2.63 µM.

And the TGI (LXFL 529 NSCLC)?
Its TGI is 11.1 µM.

What about the GI50 (SK-MEL-2 melanoma) of the same molecule?
Its GI50 is 14.4 µM.

What about the TGI (SK-MEL-2 melanoma) of the same molecule?
Its TGI is 27.6 µM.

And the GI50 (CAKI-1 renal)?
The GI50 was 13 µM.

What about the TGI (CAKI-1 renal) of the same molecule?
The TGI was 25.6 µM.

What about the GI50 (EKVX NSCLC) of the same molecule?
Its GI50 is 22.3 µM.

And the TGI (EKVX NSCLC)?
Its TGI is 41.4 µM.

And the GI50 (NCI-H522 lung)?
Its GI50 is 2.07 µM.

What about the TGI (NCI-H522 lung) of the same molecule?
Its TGI is 7.04 µM.

And the GI50 (MOLT-4 leukemia)?
Its GI50 is 19 µM.

What about the TGI (MOLT-4 leukemia) of the same molecule?
Its TGI is 64.4 µM.

What about the GI50 (SF-539 CNS) of the same molecule?
The GI50 was 2.72 µM.

What about the TGI (SF-539 CNS) of the same molecule?
Its TGI is 9.7 µM.

And the GI50 (HOP-62 NSCLC)?
The GI50 was 20.2 µM.

What about the TGI (HOP-62 NSCLC) of the same molecule?
Its TGI is 36.6 µM.

What about the GI50 (XF 498 CNS) of the same molecule?
The GI50 was 2.55 µM.

What about the TGI (XF 498 CNS) of the same molecule?
The TGI was 6.41 µM.

And the GI50 (OVCAR-3 ovarian)?
Its GI50 is 13.3 µM.

What about the TGI (OVCAR-3 ovarian) of the same molecule?
The TGI was 26 µM.

And the GI50 (OVCAR-5 ovarian)?
The GI50 was 25.7 µM.

And the TGI (OVCAR-5 ovarian)?
Its TGI is 40.4 µM.

What about the GI50 (UACC-257 melanoma) of the same molecule?
Its GI50 is 13.7 µM.

And the TGI (UACC-257 melanoma)?
The TGI was 26.5 µM.
